Results on four molecules are retold here after patent US20220193043A1 (CIPLA LIMITED, priority 2019, published 2022).

The procedure of data set [1]:
Bioanalysis was performed using a fit-for-purpose LC-MS/MS method for the quantification of tenofovir in rat plasma samples. The calibration curve (CC) for the method consisted of nine non-zero calibration standards along with a double blank and zero standard samples. Study samples were analyzed along with three sets of quality control samples (18 QC samples; low, medium and high QC samples).
Plasma pharmacokinetic parameters were calculated using the non-compartmental analysis tool of Phoenix software (Version 6.3) and were determined from individual animals in each group. The peak plasma concentration (C), time to achieve peak plasma concentration (Tmax), the area under the plasma concentration-time curve (AUC0-t and AUCinf), AUC Extra (%), elimination half-life (T1/2), clearance (CL), volume of distribution Vd (L/kg) and Mean residence time (MRT) were calculated from intravenous group. The peak plasma concentration (C), time to achieve peak plasma concentration (T), AUC0-t and AUCinf, AUC Extra (%), Mean residence time (MRT) and absolute oral bioavailability (F) were calculated from the oral group.

Another data set relates to Staphylococcus aurues. The conditions noted are these: cited from earlier work.
For data set [2] the following is noted: cited from earlier work.

Regarding `[2H]C1([2H])N=C(Nc2c(Cl)ccc3nsnc23)NC1([2H])[2H]` [Tizanidine D4], the “CLF_Obs(PO)” value in data set [1] (rat plasma, 3 mg/kg PO) amounted to 405 ± 189 mL/min/kg.

On to `COc1ccc2cc3[n+](cc2c1OC)CCc1cc2c(cc1-3)OCO2` [berberine], for which the antimicrobial activity result in the data set with Staphylococcus aurues (berberine alone, in solution) is “very weak”. The “increase of antimicrobial activity of berberine” value with Staphylococcus aurues (in combination with 5-Methoxy hydnocarpin (5-MIC), against Staphylococcus aurues) is reported as 200 folds.

As for `Oc1ccc(C=Cc2cc(O)cc(O)c2)cc1` [resveratrol], the water solubility in data set [2] is reported as less than 0.05 mg/mL.

Consider “Tizanidine hydrochloride [Tizanidine HCl]”, for which, in data set [1] (rat, in vivo, po, 3 mg/kg), the AUCINF came out at 111 ± 20 ng·h/mL, the AUClast stood at 106 ± 17.7 ng·h/mL and the “Vz/F_obs(PO)” value came out at 71.9 ± 36.1 L/kg.
